Results reported in US20240350469A1, “TREATMENT OF LOWER RESPIRATORY TRACT INFECTION WITH TRADIPITANT” (Vanda Pharmaceuticals Inc., priority 2021, published 2024).

Test system: severe or critical COVID-19 infection
Experiment: Randomized, double-blind, placebo-controlled study of tradipitant in hospitalized patients with COVID-19 pneumonia (interim analysis, ITT)
Type: in vivo
Conditions: for Ordinal Score at Day 7 = 7 (Not hospitalized), no. of patients / Ordinal Score at Day 28 = 1 (Death), % of patients / Ordinal Score at Day 28 = 1 (Death), no. of patients / Ordinal Score at Day 28 = 2 (Hospitalized, on invasive mechanical ventilation or ECMO), % of patients / Ordinal Score at Day 28 = 2 (Hospitalized, on invasive mechanical ventilation or ECMO), no. of patients / Ordinal Score at Day 28 = 3 (Hospitalized, on non-invasive ventilation or high flow oxygen devices), % of patients / Ordinal Score at Day 28 = 3 (Hospitalized, on non-invasive ventilation or high flow oxygen devices), no. of patients / Ordinal Score at Day 28 = 4 (Hospitalized, requiring supplemental oxygen), % of patients / Ordinal Score at Day 28 = 4 (Hospitalized, requiring supplemental oxygen), no. of patients / Ordinal Score at Day 28 = 7 (Not hospitalized), % of patients / Ordinal Score at Day 28 = 7 (Not hospitalized), no. of patients / No. of deaths by day 7 / No. of deaths by day 28 / Ordinal Score at Day 7 = 1 (Death), % of patients / Ordinal Score at Day 7 = 1 (Death), no. of patients / Ordinal Score at Day 7 = 2 (Hospitalized, on invasive mechanical ventilation or ECMO), % of patients / Ordinal Score at Day 7 = 2 (Hospitalized, on invasive mechanical ventilation or ECMO), no. of patients / Ordinal Score at Day 7 = 3 (Hospitalized, on non-invasive ventilation or high flow oxygen devices), % of patients / Ordinal Score at Day 7 = 3 (Hospitalized, on non-invasive ventilation or high flow oxygen devices), no. of patients / Ordinal Score at Day 7 = 4 (Hospitalized, requiring supplemental oxygen), % of patients / Ordinal Score at Day 7 = 4 (Hospitalized, requiring supplemental oxygen), no. of patients / Ordinal Score at Day 7 = 5 (Hospitalized, not requiring supplemental oxygen), % of patients / Ordinal Score at Day 7 = 5 (Hospitalized, not requiring supplemental oxygen), no. of patients / Ordinal Score at Day 7 = 7 (Not hospitalized), % of patients: ITT
[1] = ordinal score at baseline 3, tradipitant N = 13
[2] = ordinal score at baseline 4, tradipitant N = 9

O=C(c1ccccc1Cl)c1cccnc1-c1nnn(Cc2cc(C(F)(F)F)cc(C(F)(F)F)c2)c1-c1ccncc1 [Tradipitant]
Ordinal Score at Day 7 = 7 (Not hospitalized), no. of patients [1]: 1
Ordinal Score at Day 28 = 1 (Death), % of patients [1]: (7.7) %
Ordinal Score at Day 28 = 1 (Death), no. of patients [1]: 1
Ordinal Score at Day 28 = 2 (Hospitalized, on invasive mechanical ventilation or ECMO), % of patients [1]: (61.5) %
Ordinal Score at Day 28 = 2 (Hospitalized, on invasive mechanical ventilation or ECMO), no. of patients [1]: 8
Ordinal Score at Day 28 = 3 (Hospitalized, on non-invasive ventilation or high flow oxygen devices), % of patients [1]: (0.0) %
Ordinal Score at Day 28 = 3 (Hospitalized, on non-invasive ventilation or high flow oxygen devices), no. of patients [1]: 0
Ordinal Score at Day 28 = 4 (Hospitalized, requiring supplemental oxygen), % of patients [1]: (0.0) %
Ordinal Score at Day 28 = 4 (Hospitalized, requiring supplemental oxygen), no. of patients [1]: 0
Ordinal Score at Day 28 = 7 (Not hospitalized), % of patients [1]: (30.8) %
Ordinal Score at Day 28 = 7 (Not hospitalized), no. of patients [1]: 4
No. of deaths by day 7 [2]: 1
No. of deaths by day 28 [2]: 1
Ordinal Score at Day 7 = 1 (Death), % of patients [2]: (11.1) %
Ordinal Score at Day 7 = 1 (Death), no. of patients [2]: 1
Ordinal Score at Day 7 = 2 (Hospitalized, on invasive mechanical ventilation or ECMO), % of patients [2]: (0.0) %
Ordinal Score at Day 7 = 2 (Hospitalized, on invasive mechanical ventilation or ECMO), no. of patients [2]: 0
Ordinal Score at Day 7 = 3 (Hospitalized, on non-invasive ventilation or high flow oxygen devices), % of patients [2]: (11.1) %
Ordinal Score at Day 7 = 3 (Hospitalized, on non-invasive ventilation or high flow oxygen devices), no. of patients [2]: 1
Ordinal Score at Day 7 = 4 (Hospitalized, requiring supplemental oxygen), % of patients [2]: (11.1) %
Ordinal Score at Day 7 = 4 (Hospitalized, requiring supplemental oxygen), no. of patients [2]: 1
Ordinal Score at Day 7 = 5 (Hospitalized, not requiring supplemental oxygen), % of patients [2]: (0.0) %
Ordinal Score at Day 7 = 5 (Hospitalized, not requiring supplemental oxygen), no. of patients [2]: 0
Ordinal Score at Day 7 = 7 (Not hospitalized), % of patients [2]: (66.7) %
Ordinal Score at Day 7 = 7 (Not hospitalized), no. of patients [2]: 6
Ordinal Score at Day 28 = 1 (Death), % of patients [2]: (11.1) %
Ordinal Score at Day 28 = 1 (Death), no. of patients [2]: 1
Ordinal Score at Day 28 = 2 (Hospitalized, on invasive mechanical ventilation or ECMO), % of patients [2]: (0.0) %
Ordinal Score at Day 28 = 2 (Hospitalized, on invasive mechanical ventilation or ECMO), no. of patients [2]: 0
Ordinal Score at Day 28 = 3 (Hospitalized, on non-invasive ventilation or high flow oxygen devices), % of patients [2]: (11.1) %
Ordinal Score at Day 28 = 3 (Hospitalized, on non-invasive ventilation or high flow oxygen devices), no. of patients [2]: 1
Ordinal Score at Day 28 = 4 (Hospitalized, requiring supplemental oxygen), % of patients [2]: (0.0) %
Ordinal Score at Day 28 = 4 (Hospitalized, requiring supplemental oxygen), no. of patients [2]: 0
Ordinal Score at Day 28 = 7 (Not hospitalized), % of patients [2]: (77.8) %
Ordinal Score at Day 28 = 7 (Not hospitalized), no. of patients [2]: 7
No. of deaths by day 7 (overall, tradipitant N = 28): 2
No. of deaths by day 28 (overall, tradipitant N = 28): 4
Ordinal Score at Day 7 = 1 (Death), % of patients (overall, tradipitant N = 28): (7.1) %
Ordinal Score at Day 7 = 1 (Death), no. of patients (overall, tradipitant N = 28): 2
Ordinal Score at Day 7 = 2 (Hospitalized, on invasive mechanical ventilation or ECMO), % of patients (overall, tradipitant N = 28): (32.1) %
Ordinal Score at Day 7 = 2 (Hospitalized, on invasive mechanical ventilation or ECMO), no. of patients (overall, tradipitant N = 28): 9
Ordinal Score at Day 7 = 3 (Hospitalized, on non-invasive ventilation or high flow oxygen devices), % of patients (overall, tradipitant N = 28): (14.3) %
Ordinal Score at Day 7 = 3 (Hospitalized, on non-invasive ventilation or high flow oxygen devices), no. of patients (overall, tradipitant N = 28): 4
Ordinal Score at Day 7 = 4 (Hospitalized, requiring supplemental oxygen), % of patients (overall, tradipitant N = 28): (7.1) %
Ordinal Score at Day 7 = 4 (Hospitalized, requiring supplemental oxygen), no. of patients (overall, tradipitant N = 28): 2
Ordinal Score at Day 7 = 5 (Hospitalized, not requiring supplemental oxygen), % of patients (overall, tradipitant N = 28): (7.1) %
Ordinal Score at Day 7 = 5 (Hospitalized, not requiring supplemental oxygen), no. of patients (overall, tradipitant N = 28): 2
Ordinal Score at Day 7 = 7 (Not hospitalized), % of patients (overall, tradipitant N = 28): (32.1) %
Ordinal Score at Day 7 = 7 (Not hospitalized), no. of patients (overall, tradipitant N = 28): 9
Ordinal Score at Day 28 = 1 (Death), % of patients (overall, tradipitant N = 28): (14.3) %
Ordinal Score at Day 28 = 1 (Death), no. of patients (overall, tradipitant N = 28): 4
Ordinal Score at Day 28 = 2 (Hospitalized, on invasive mechanical ventilation or ECMO), % of patients (overall, tradipitant N = 28): (28.6) %
Ordinal Score at Day 28 = 2 (Hospitalized, on invasive mechanical ventilation or ECMO), no. of patients (overall, tradipitant N = 28): 8
Ordinal Score at Day 28 = 3 (Hospitalized, on non-invasive ventilation or high flow oxygen devices), % of patients (overall, tradipitant N = 28): (3.6) %
Ordinal Score at Day 28 = 3 (Hospitalized, on non-invasive ventilation or high flow oxygen devices), no. of patients (overall, tradipitant N = 28): 1
Ordinal Score at Day 28 = 4 (Hospitalized, requiring supplemental oxygen), % of patients (overall, tradipitant N = 28): (0.0) %
Ordinal Score at Day 28 = 4 (Hospitalized, requiring supplemental oxygen), no. of patients (overall, tradipitant N = 28): 0
Ordinal Score at Day 28 = 7 (Not hospitalized), % of patients (overall, tradipitant N = 28): (53.6) %
Ordinal Score at Day 28 = 7 (Not hospitalized), no. of patients (overall, tradipitant N = 28): 15
Mortality rate (tradipitant arm, interim analysis, placebo arm 16.6%, not statistically significant): 14.2%
Patients showing clinical improvement (at least a 2 point improvement in the 7 point ordinal scale) (tradipitant arm, interim analysis, placebo arm 50%, not statistically significant): 57%
Time to improvement analysis (tradipitant vs placebo, FIG. 1, statistically significant at day 7): recover earlier than those receiving placebo
